Here are results for 2 compounds from patent US8337881B2, “Cyanoacrylate monomer formulation containing diiodomethyl-p-tolylsulfone” (Ethicon, Inc., priority 2003, dated 2012).

The conditions of series [1]: aqueous; cited from earlier work.
In series [2] the test system is Enterococcus faecium 700221. The series can be described thus: MIC/MBC of pure DIMPTS, tube dilution procedure. The conditions noted are these: preliminary evaluation. The format is cell-based. Here is the method:
(§1) Minimum inhibitory concentration is the lowest concentration that prevents the development of visible growth after a period of incubation. Minimum bactericidal concentration is the lowest concentration that achieves a 1000 fold or greater reduction in the original bacterial inoculum. The minimum inhibitory concentration (MIC) and minimum bactericidal concentration (MBC) is evaluated using tube dilution procedure. The effectiveness of the antimicrobial property of pure […] is described in terms of minimum inhibitory concentration (MIC) and minimum bactericidal concentration (MBC) in Table II (A).

For series [3], the system named is Staphylococcus aureus 33591. The series can be described thus: MIC/MBC of pure DIMPTS, tube dilution procedure. The format is cell-based. The conditions noted are these: preliminary evaluation. Here is the method:
as §1

Series [4] has as its system Bacillus subtilis 902173. The series can be described thus: MIC/MBC of pure DIMPTS, tube dilution procedure. The format is cell-based. The conditions noted are these: preliminary evaluation. Here is the method: (§2) Minimum inhibitory concentration is the lowest concentration that prevents the development of visible growth after a period of incubation. Minimum bactericidal concentration is the lowest concentration that achieves a 1000 fold or greater reduction in the original bacterial inoculum. The minimum inhibitory concentration (MIC) and minimum bactericidal concentration (MBC) is evaluated using tube dilution procedure.
(§3) The effectiveness of the antimicrobial property of pure DIMPTS is described in terms of minimum inhibitory concentration (MIC) and minimum bactericidal concentration (MBC) in Table II (A).

For series [5], the system named is Candida albicans 10231. As to the kind of experiment: MIC/MBC of pure DIMPTS, tube dilution procedure. The format is cell-based. Here is the method:
as §2, §3

Series [6] relates to Escherichia coli 8739. The series can be described thus: MIC/MBC of pure DIMPTS, tube dilution procedure. The format is cell-based. The conditions noted are these: preliminary evaluation. The procedure: as §2, §3
Series [7] has as its system Pseudomonas aeruginosa 9027. As to the kind of experiment: MIC/MBC of pure DIMPTS, tube dilution procedure. The format is cell-based. The conditions noted are these: preliminary evaluation. The procedure: as §2, §3
Series [8] concerns Staphylococcus aureus 6538. The series can be described thus: MIC/MBC of pure DIMPTS, tube dilution procedure. The class given is cell-based. The settings on record: preliminary evaluation. Here is the method: as §2, §3
Series [9] deals with Staphylococcus epidermidis 51625. The series can be described thus: MIC/MBC of pure DIMPTS, tube dilution procedure. The format is cell-based. The conditions noted are these: preliminary evaluation. Here is the method:
as §2, §3

For series [10], the system named is Streptococcus agalactiae 624. The series can be described thus: MIC/MBC of pure DIMPTS, tube dilution procedure. The class given is cell-based. The settings on record: preliminary evaluation. The procedure:
as §2, §3

Series [11] in a line: Solubility of DIMPTS in cyanoacrylate monomer. The format is physicochemical. The source says:
Diiodomethyl-p-tolylsulfone (DIMPTS) is soluble in cyanoacrylate monomer at least up to 15,000 ppm (wt./wt.). Accordingly, formulations may herein have a concentration of diiodomethyl-p-tolylsulfone ranging from about 500 (0.05%) to about 10,000 ppm (1.00%), preferably from about 700 (0.07%) to about 7,000 ppm (0.70%), more preferably the concentration of diiodomethyl-p-tolylsulfone is about 2800 ppm (0.28%).

Like-named read-outs stand apart in the source and are kept apart here.

Turning to `[O-][Cl+3]([O-])([O-])O` [perchloric acid], in series [1], the pKa is −5.0.
For `Cc1ccc(S(=O)(=O)C(I)I)cc1` [DIMPTS, diiodomethyl-p-tolylsulfone], the MIC in series [2] was 50 µg/mL; in series [3] it was 12.5 µg/mL; in series [4], 50 µg/mL; in [5] (Candida albicans 10231, preliminary evaluation, read-out: MIC) it was 5 µg/mL; in series [5] (Candida albicans, 10231, statement in description, strain not given, read-out: minimum inhibitory concentration against C. albicans), approximately 5 µg/mL; in series [6], 100 µg/mL. The MIC in [7] is more than 100 µg/mL; in series [8], 100 µg/mL; in series [9], 25 µg/mL; in [10] it was 50 µg/mL. In addition, the MBC is less than 250 µg/mL in [3]; 50 to 100 µg/mL in series [4]; 10 to 100 µg/mL in series [5] (Candida albicans 10231, preliminary evaluation); less than 250 µg/mL in series [6]; less than 250 µg/mL in series [8]; less than 100 µg/mL in series [9]. The MBC in [10] fell in the range of 125 to 250 µg/mL. Besides, the “soluble in cyanoacrylate monomer” value in [11] is listed as ≥ 15,000 ppm (wt./wt.).

What is called pKa is the negative logarithm of the acid dissociation constant.
